Reference: patent US10774086B2, “GSK-3 inhibitors” (BRISTOL-MYERS SQUIBB COMPANY, priority 2016, dated 2020)

Key:
GSK3β = GSK3β (Homo sapiens (Human), UniProt P49841); assay: GSK3β kinase assay (Caliper LabChip, fluoresceinated peptide substrate); assay type: biochemical; conditions: 250 pM enzyme, 20 uM ATP, 1.5 uM peptide, 20 hours room temperature; read-out: GSK3β IC50 (first value of GSK3β/GSK3α)
Experimental: The kinase assay was performed in V-bottom 384-well plates. […] The reaction was incubated at room temperature for 20 hours and terminated by adding 45 μl of 35 mM EDTA to each sample. The reaction mixture was analyzed on the Caliper LabChip3000 (Caliper, Hopkinton, Mass.) by electrophoretic separation of the unphosphorylated substrate and phosphorylated product. […] Compounds were dissolved at 10 mM in dimethylsulfoxide (DMSO) and evaluated at eleven concentrations. IC50 values were derived by non-linear regression analysis.

GSK3α = GSK3α (Homo sapiens (Human), UniProt P49840); assay: GSK3α kinase assay (Caliper LabChip, fluoresceinated peptide substrate); assay type: biochemical; conditions: 250 pM enzyme, 20 uM ATP, 1.5 uM peptide, 20 hours room temperature; read-out: GSK3α IC50 (second value of GSK3β/GSK3α)
Chain of GSK3α (P49840 whole entry, species assumed): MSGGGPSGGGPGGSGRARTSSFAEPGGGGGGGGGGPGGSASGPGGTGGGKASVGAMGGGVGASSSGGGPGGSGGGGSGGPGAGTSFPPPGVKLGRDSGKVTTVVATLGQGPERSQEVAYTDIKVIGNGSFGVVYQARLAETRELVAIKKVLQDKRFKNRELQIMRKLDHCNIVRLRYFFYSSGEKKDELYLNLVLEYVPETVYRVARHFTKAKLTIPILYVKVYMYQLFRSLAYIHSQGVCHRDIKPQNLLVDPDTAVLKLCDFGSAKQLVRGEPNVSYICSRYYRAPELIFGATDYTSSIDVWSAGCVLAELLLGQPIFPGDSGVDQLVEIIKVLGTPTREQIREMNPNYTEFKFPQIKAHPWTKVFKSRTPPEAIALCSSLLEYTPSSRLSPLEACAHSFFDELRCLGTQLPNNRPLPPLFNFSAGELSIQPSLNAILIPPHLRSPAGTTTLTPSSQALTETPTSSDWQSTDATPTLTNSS
From the text: IC50 values were derived by non-linear regression analysis.

pTau = pTau assay; assay type: cell-based

Chain of GSK3β (P49841 whole entry, species assumed): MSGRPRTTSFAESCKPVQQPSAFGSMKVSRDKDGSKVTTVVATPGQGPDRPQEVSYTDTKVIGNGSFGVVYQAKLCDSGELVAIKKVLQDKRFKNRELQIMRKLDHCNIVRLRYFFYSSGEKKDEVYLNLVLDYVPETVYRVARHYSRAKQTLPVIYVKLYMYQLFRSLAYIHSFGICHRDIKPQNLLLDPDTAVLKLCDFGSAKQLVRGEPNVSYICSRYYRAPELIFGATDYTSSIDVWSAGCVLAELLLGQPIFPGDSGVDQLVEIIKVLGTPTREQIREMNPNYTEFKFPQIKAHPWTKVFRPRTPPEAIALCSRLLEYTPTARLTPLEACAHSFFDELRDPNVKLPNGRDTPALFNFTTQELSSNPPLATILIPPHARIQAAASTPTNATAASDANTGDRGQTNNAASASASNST

O=C(Nc1cnccc1-c1ccc(F)cc1)c1ccnn2cc(C3=CCCCC3)nc12 [Example 33, 2-(Cyclohex-1-en-1-yl)-N-(4-(4-fluorophenyl)pyridin-3-yl)imidazo[1,2-b]pyridazine-8-carboxamide]
IC50 (GSK3β): 6.1 nM
IC50 (GSK3α): 1.2 nM
IC50 (pTau): 820 nM

O=C(Nc1cnccc1N1CCC(F)(F)CC1)c1ccnn2cc(C3=CCCCC3)nc12 [Example 34, 2-(Cyclohex-1-en-1-yl)-N-(4-(4,4-difluoropiperidin-1-yl)pyridin-3-yl)imidazo[1,2-b]pyridazine-8-carboxamide]
IC50 (GSK3β): 0.4 nM
IC50 (GSK3α): 0.1 nM
IC50 (pTau): 28 nM

CC1CN(c2ccncc2NC(=O)c2ccnn3cc(C4=CCCCC4)nc23)CCO1 (stereo not drawn) [Example 35, 2-(Cyclohex-1-en-1-yl)-N-(4-(2-methylmorpholino)pyridin-3-yl)imidazo[1,2-b]pyridazine-8-carboxamide]
IC50 (GSK3β): 1.6 nM
IC50 (GSK3α): 1 nM
IC50 (pTau): 160 nM

CCOc1ncncc1NC(=O)c1ccnn2cc(-c3ccccc3)nc12 [Example 37, N-(4-Ethoxypyrimidin-5-yl)-2-phenylimidazo[1,2-b]pyridazine-8-carboxamide]
IC50 (GSK3β): 5.3 nM
IC50 (GSK3α): 1 nM
IC50 (pTau): 620 nM

O=C(Nc1cncnc1OCC(F)(F)F)c1ccnn2cc(-c3ccccc3)nc12 [Example 38, 2-Phenyl-N-(4-(2,2,2-trifluoroethoxy)pyrimidin-5-yl)imidazo[1,2-b]pyridazine-8-carboxamide]
IC50 (GSK3β): 3.6 nM
IC50 (GSK3α): 1 nM
IC50 (pTau): 330 nM

O=C(Nc1cccnc1)c1ccnn2c(NCC3CC3)cnc12 [Example 39, 3-((Cyclopropylmethyl)amino)-N-(pyridin-3-yl)imidazo[1,2-b]pyridazine-8-carboxamide]
IC50 (GSK3β): 220 nM
IC50 (GSK3α): 900 nM
IC50 (pTau): > 10000 nM

Cc1ccncc1NC(=O)c1ccnn2c(NCC3CC3)cnc12 [Example 40, 3-((Cyclopropylmethyl)amino)-N-(4-methylpyridin-3-yl)imidazo[1,2-b]pyridazine-8-carboxamide]
IC50 (GSK3β): 63 nM
IC50 (GSK3α): 30 nM
IC50 (pTau): 3900 nM

CC(C)Oc1ccncc1NC(=O)c1ccnn2c(NCC3CC3)cnc12 [Example 41, 3-((Cyclopropylmethyl)amino)-N-(4-isopropoxypyridin-3-yl)imidazo[1,2-b]pyridazine-8-carboxamide]
IC50 (GSK3β): 6.6 nM
IC50 (GSK3α): 3.4 nM
IC50 (pTau): 290 nM

O=C(Nc1cnccc1-c1ccccc1)c1ccnn2c(NCC3CC3)cnc12 [Example 42, 3-((Cyclopropylmethyl)amino)-N-(4-phenylpyridin-3-yl)imidazo[1,2-b]pyridazine-8-carboxamide]
IC50 (GSK3β): 3.4 nM
IC50 (GSK3α): 3.2 nM
IC50 (pTau): 320 nM

O=C(Nc1cnccc1N1CCC(F)(F)CC1)c1ccnn2c(NCC3CC3)cnc12 [Example 43, 3-((Cyclopropylmethyl)amino)-N-(4-(4,4-difluoropiperidin-1-yl)pyridin-3-yl)imidazo[1,2-b]pyridazine-8-carboxamide]
IC50 (GSK3β): 1.1 nM
IC50 (GSK3α): 2 nM
IC50 (pTau): 41 nM

O=C(Nc1cnccc1N1CCOCC1)c1ccnn2c(NCC3CC3)cnc12 [Example 44, 3-((Cyclopropylmethyl)amino)-N-(4-morpholinopyridin-3-yl)imidazo[1,2-b]pyridazine-8-carboxamide]
IC50 (GSK3β): 9 nM
IC50 (GSK3α): 1.4 nM
IC50 (pTau): 65 nM

CC1CN(c2ccncc2NC(=O)c2ccnn3c(NCC4CC4)cnc23)CCO1 (stereo not drawn) [Example 45, 3-((Cyclopropylmethyl)amino)-N-(4-(2-methylmorpholino)pyridin-3-yl)imidazo[1,2-b]pyridazine-8-carboxamide]
IC50 (GSK3β): 5.2 nM
IC50 (GSK3α): 1.6 nM
IC50 (pTau): 140 nM

CC(C)Oc1ccncc1NC(=O)c1ccnn2c(NC(=O)C3CC3)cnc12 [Example 46, 3-(Cyclopropanecarboxamido)-N-(4-isopropoxypyridin-3-yl)imidazo[1,2-b]pyridazine-8-carboxamide]
IC50 (GSK3β): 6 nM
IC50 (GSK3α): 51 nM
IC50 (pTau): 5100 nM

CC(C)Oc1ccncc1NC(=O)c1ccnn2c(NC(=O)C3CCC3)cnc12 [Example 47, 3-(Cyclobutanecarboxamido)-N-(4-isopropoxypyridin-3-yl)imidazo[1,2-b]pyridazine-8-carboxamide]
IC50 (GSK3β): 140 nM
IC50 (GSK3α): 110 nM
IC50 (pTau): 6800 nM
